The text below walks through data of patent publication US10077237B2 (Sanofi, priority 2013, dated 2018).

For the test, the target named is T1, recombinant human AMPK complex, containing α2β1γ2 (Homo sapiens, UniProt P54646+Q9Y478).
T1 construct: hsAMPKα2-552-His, hsAMPKβ1-2-270 and hsAMPKγ-2-569 respectively; hsAMPKβ1-2-270; hsAMPKγ-2-569; His (C); made in house; host or cells: Spodoptera frugiperda Sf21 (baculovirus)
Description: AMPK in vitro activation assay (HTRF). Type of test: biochemical. The settings on record: for EC50: HTRF, recombinant human α2β1γ2 AMPK, 200 μM ATP, biotinylated ACC-CREBp peptide, repeat determinations on separate lines. The method, then: The recombinant human AMPK complex, containing α2β1γ2 was obtained from baculovirus expression system and generated by cotransfection in Spodoptera frugiperda 21 (Sf21). […] were produced in serum free medium (SF900 II, Invitrogen) for 82 hours after a triple infection at a multiplicity of infection (M.O.I.) of 0.05, 0.06 and 0.045 for hsAMPKα2-552-His, hsAMPKβ1-2-270 and hsAMPKγ-2-569 respectively. Cells were harvested by centrifugation at 1,000×g for 10 minutes at 4° C. and stored at −80° C. The insect cell pellet from 8 liters of culture was resuspended and homogenized in 580 ml of lysis buffer (20 mM Hepes pH 7.5, 150 mM NaCl, 10 mM imidazole, 50 mM NaF, 10% Glycerol and supplemented with EDTA free proteases inhibitor cocktail Roche). The AMPK complex was partially purified using an affinity chromatography under a Ni-NTA Agarose column equilibrated in the lysis buffer and eluted with a gradient (0 to 400 mM) of Imidazol.
A homogeneous time-resolved fluorescence (HTRF) assay was used (Li et al, Anal. Biochem. (2003) 321, 151-156) to identify compounds with stimulating activity for the recombinant human AMPK. Enzyme reaction was performed into a 96-well microtiter plate. First, 20 μL of test compounds in 0.5% DMSO were dispensed followed by 10 μL of protein in 50 mM HEPES buffer at pH 7.0, 100 mM NaCl, 5 mM MgCl2, 0.01% BSA, 0.8 mM DTT. After, 30 min incubation at room temperature, the reaction was initiated by the addition of 10 μL of a solution containing 200 μM of ATP as donor substrate, 2 μM or 0.08 μM of biotinylated ACC-CREBp peptide (PolyPeptide) as acceptor. Plates were then incubated 45 min at 37° C. The reaction was terminated by the addition of 40 μl detection mixture containing Eu^3+ cryptate-conjugated anti-pS^133-CREB antibody and streptavidine-XL665 (CisBio). Plates were further incubated for 2 h30 at room temperature. The fluorescence signal was measured using an Envision multireader (Perkin Elmer). The non-specific signal was obtained without substrates. Potentiation of AMPK activity was expressed as a percent over the basal signal (without compound) from which an EC50 value was determined.
The EC50 of a graded dose response curve represents the concentration of a compound where 50% of its maximal effect is observed.

Where [1] appears, read: potentiation of AMPK activity as percent over the basal signal (without compound).

Where a name gives a salt, the structure may show the parent alone.

T1 sequence (P54646 2-552): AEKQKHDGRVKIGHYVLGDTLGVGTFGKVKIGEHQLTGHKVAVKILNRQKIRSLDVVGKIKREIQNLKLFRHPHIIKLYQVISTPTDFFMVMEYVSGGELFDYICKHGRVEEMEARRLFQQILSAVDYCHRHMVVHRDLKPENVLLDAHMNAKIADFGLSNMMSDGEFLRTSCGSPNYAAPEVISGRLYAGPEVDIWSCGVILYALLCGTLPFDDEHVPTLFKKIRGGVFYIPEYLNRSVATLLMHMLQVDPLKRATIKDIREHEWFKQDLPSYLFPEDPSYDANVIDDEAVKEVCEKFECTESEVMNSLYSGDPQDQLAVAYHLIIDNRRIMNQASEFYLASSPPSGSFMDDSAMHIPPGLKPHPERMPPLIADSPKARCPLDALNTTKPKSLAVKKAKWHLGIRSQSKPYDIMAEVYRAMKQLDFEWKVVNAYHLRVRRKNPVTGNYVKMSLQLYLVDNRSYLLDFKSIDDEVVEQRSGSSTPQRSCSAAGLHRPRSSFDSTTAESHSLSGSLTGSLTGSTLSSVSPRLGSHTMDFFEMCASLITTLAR
T1 sequence (Q9Y478 2-270): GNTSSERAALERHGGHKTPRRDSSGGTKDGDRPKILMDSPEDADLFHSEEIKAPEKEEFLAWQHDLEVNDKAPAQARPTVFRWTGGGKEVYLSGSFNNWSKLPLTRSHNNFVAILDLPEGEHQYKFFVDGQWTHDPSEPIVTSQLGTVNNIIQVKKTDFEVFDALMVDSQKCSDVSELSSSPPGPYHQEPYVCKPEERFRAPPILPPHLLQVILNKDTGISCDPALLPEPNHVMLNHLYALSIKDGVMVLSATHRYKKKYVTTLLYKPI
T1 sequence (Q9UGJ0 2-569 partner limits assumed): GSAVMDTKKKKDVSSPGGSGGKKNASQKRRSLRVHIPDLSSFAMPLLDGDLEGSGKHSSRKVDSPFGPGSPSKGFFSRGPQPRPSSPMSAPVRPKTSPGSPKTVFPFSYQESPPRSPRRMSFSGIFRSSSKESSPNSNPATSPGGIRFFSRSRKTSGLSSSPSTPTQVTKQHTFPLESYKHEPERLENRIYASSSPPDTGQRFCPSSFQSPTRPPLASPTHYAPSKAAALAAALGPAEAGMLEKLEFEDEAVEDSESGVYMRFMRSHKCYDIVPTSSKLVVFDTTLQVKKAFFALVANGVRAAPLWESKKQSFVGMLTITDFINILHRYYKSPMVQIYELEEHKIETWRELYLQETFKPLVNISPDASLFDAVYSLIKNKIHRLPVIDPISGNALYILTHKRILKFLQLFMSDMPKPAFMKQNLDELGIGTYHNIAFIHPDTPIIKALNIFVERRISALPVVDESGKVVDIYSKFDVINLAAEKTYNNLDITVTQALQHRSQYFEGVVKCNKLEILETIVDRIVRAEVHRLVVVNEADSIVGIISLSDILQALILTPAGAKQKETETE

With `O=C1Nc2cc(Cl)c(-c3ccc(C4(CO)CC4)cc3)cc2C1=C(O)c1cccc(F)c1` [Compound 27, 6-Chloro-3-[1-(3-fluoro-phenyl)-1-hydroxy-methylidene]-5-[4-(1-hydroxymethyl-cyclopropyl)-phenyl]-1,3-dihydro-indol-2-one], the EC50 came out at 2 nM. In addition, the Emax under setting [1] was determined as 129%.

Turning to `Cc1cc(C(O)=C2C(=O)Nc3cc(Cl)c(-c4ccc(N5CCOCC5)cc4)cc32)no1` [Compound 28, 6-Chloro-3-[1-hydroxy-1-(5-methyl-isoxazol-3-yl)-methylidene]-5-(4-morpholin-4-yl-phenyl)-1,3-dihydro-indol-2-one], the concentration for a half-maximal effect (EC50) amounted to 130 nM. Also, the Emax under setting [1] was determined as 150%.

`Cc1cc(C(O)=C2C(=O)Nc3cc(F)c(-c4ccc(N5CCOCC5)cc4)cc32)on1` [Compound 29, 6-Fluoro-3-[1-hydroxy-1-(3-methyl-isoxazol-5-yl)-methylidene]-5-(4-morpholin-4-yl-phenyl)-1,3-dihydro-indol-2-one]: the EC50 is 58 nM. Further, the Emax under setting [1] was 157%.

In the case of `Cc1cc(C(O)=C2C(=O)Nc3cc(Cl)c(-c4ccc(F)cc4)cc32)on1` [Compound 30, 6-Chloro-5-(4-fluoro-phenyl)-3-[1-hydroxy-1-(3-methyl-isoxazol-5-yl)-methylidene]-1,3-dihydro-indol-2-one], the EC50 was found to be 240 nM. Besides, the Emax under setting [1] was determined as 108%.

As for `Cc1cc(C(O)=C2C(=O)Nc3cc(C)c(-c4ccc(N5CCOCC5)cc4)cc32)on1` [Compound 31, 3-[1-Hydroxy-1-(3-methyl-isoxazol-5-yl)-methylidene]-6-methyl-5-(4-morpholin-4-yl-phenyl)-1,3-dihydro-indol-2-one], the EC50 was found to be 540 nM. The Emax under setting [1] amounted to 147%.

On to `O=C1Nc2cc(Cl)c(-c3ccc(N4CCOCC4)cc3)cc2C1=C(O)c1ccccc1F` [Compound 32, 6-Chloro-3-[1-(2-fluoro-phenyl)-1-hydroxy-methylidene]-5-(4-morpholin-4-yl-phenyl)-1,3-dihydro-indol-2-one], for which the EC50 is 140 nM. Under setting [1], the Emax turned out to be 112%.

`Cc1cc(C(O)=C2C(=O)Nc3cc(Cl)c(-c4ccc(O)cc4)cc32)on1` [Compound 33, 6-Chloro-3-[1-hydroxy-1-(3-methyl-isoxazol-5-yl)-methylidene]-5-(4-hydroxy-phenyl)-1,3-dihydro-indol-2-one]: the EC50 stood at 390 nM. For the same compound, the Emax under setting [1] was 120%.

As to `O=C1Nc2cc(Cl)c(-c3ccc(N4CCOCC4)cc3)cc2C1=C(O)c1cccc(Cl)c1` [Compound 34, 6-Chloro-3-[1-(3-chloro-phenyl)-1-hydroxy-methylidene]-5-(4-morpholin-4-yl-phenyl)-1,3-dihydro-indol-2-one], the EC50 came out at 630 nM. For the same compound, the Emax under setting [1] was 156%.

In the case of `Cc1cc(C(O)=C2C(=O)Nc3cc(Cl)c(-c4ccc(-c5ccncc5)cc4)cc32)on1` [Compound 35, 6-Chloro-3-[1-hydroxy-1-(3-methyl-isoxazol-5-yl)-methylidene]-5-(4-pyridin-4-yl-phenyl)-1,3-dihydro-indol-2-one, hydrochloride], the half-maximal effective concentration (EC50) stood at 23 nM. Besides, the Emax under setting [1] was 151%.

Consider `O=C1Nc2cc(Cl)c(-c3ccc(N4CCOCC4)cc3)cc2C1=C(O)c1ccc(F)cc1` [Compound 36, 6-Chloro-3-[1-(4-fluoro-phenyl)-1-hydroxy-methylidene]-5-(4-morpholin-4-yl-phenyl)-1,3-dihydro-indol-2-one], for which the EC50 was 380 nM. In addition, the Emax under setting [1] worked out at 153%.

For the compound `Cc1cc(C(O)=C2C(=O)Nc3cc(Cl)c(-c4ccc(-c5csc(N)n5)cc4)cc32)on1` [Compound 37, 5-[4-(2-Amino-thiazol-4-yl)-phenyl]-6-chloro-3-[1-hydroxy-1-(3-methyl-isoxazol-5-yl)-methylidene]-1,3-dihydro-indol-2-one], the EC50 was 37 nM. The Emax under setting [1] is 192%.

On to `Cc1cc(C(O)=C2C(=O)Nc3cc(Cl)c(-c4ccc(C#N)cc4)cc32)on1` [Compound 38, 4-{6-Chloro-3-[1-hydroxy-1-(3-methyl-isoxazol-5-yl)-methylidene]-2-oxo-2,3-dihydro-1H-indol-5-yl}-benzonitrile], for which the half-maximal effective concentration (EC50) was determined as 700 nM. In addition, the Emax under setting [1] stood at 133%.

As to `O=C1Nc2cc(Cl)c(-c3ccc(N4CCOCC4)cc3)cc2C1=C(O)c1cccc(C(F)F)c1` [Compound 39, 6-Chloro-3-[1-(3-difluoromethyl-phenyl)-1-hydroxy-methylidene]-5-(4-morpholin-4-yl-phenyl)-1,3-dihydro-indol-2-one], the EC50 was 620 nM. For the same compound, the Emax under setting [1] amounted to 168%.

On to `O=C1Nc2cc(Cl)c(-c3ccc(N4CCOCC4)cc3)cc2C1=C(O)c1cccc(C(F)(F)F)c1` [Compound 40, 6-Chloro-3-[1-hydroxy-1-(3-trifluoromethyl-phenyl)-methylidene]-5-(4-morpholin-4-yl-phenyl)-1,3-dihydro-indol-2-one], for which the EC50 amounted to 720 nM. Further, the Emax under setting [1] came out at 121%.

For `O=C1Nc2cc(Cl)c(-c3ccc(N4CCOCC4)cc3)cc2C1=C(O)c1cc(Br)no1` [Compound 41, 3-[1-(3-Bromo-isoxazol-5-yl)-1-hydroxy-methylidene]-6-chloro-5-(4-morpholin-4-yl-phenyl)-1,3-dihydro-indol-2-one], the EC50 was found to be 3 nM. Besides, under setting [1], the Emax came out at 115%.

For the compound `COc1cccc(-c2ccc(-c3cc4c(cc3Cl)NC(=O)C4=C(O)c3cc(C)ns3)cc2)c1O` [Compound 42, 6-Chloro-5-(2′-hydroxy-3′-methoxy-biphenyl-4-yl)-3-[1-hydroxy-1-(3-methyl-isothiazol-5-yl)-methylidene]-1,3-dihydro-indol-2-one], the concentration giving a half-maximal response (EC50) was determined as 27 nM. Moreover, under setting [1], the Emax turned out to be 132%.

In the case of `O=C1Nc2cc(Cl)c(-c3ccc(N4CCOCC4)cc3)cc2C1=C(O)c1ccccc1` [Compound 43, 6-Chloro-3-[1-hydroxy-1-phenyl-methylidene]-5-(4-morpholin-4-yl-phenyl)-1,3-dihydro-indol-2-one], the EC50 stood at 220 nM. Further, the Emax under setting [1] came to 170%.

`Cc1cc(C(O)=C2C(=O)Nc3cc(Cl)c(-c4ccc(O)c(F)c4)cc32)on1` [Compound 44, 6-Chloro-5-(3-fluoro-4-hydroxy-phenyl)-3-[1-hydroxy-1-(3-methyl-isoxazol-5-yl)-methylidene]-1,3-dihydro-indol-2-one]: the EC50 turned out to be 470 nM. In addition, the Emax under setting [1] turned out to be 165%.

For `Cc1cc(C(O)=C2C(=O)Nc3cc(Cl)c(-c4ccc(C5(CO)CC5)s4)cc32)on1` [Compound 45, 6-Chloro-5-[5-(1-hydroxymethyl-cyclopropyl)-thiophen-2-yl]-3-[1-hydroxy-1-(3-methyl-isoxazol-5-yl)-methylidene]-1,3-dihydro-indol-2-one], the 50% effective concentration (EC50) came out at 230 nM. Also, under setting [1], the maximum response (Emax) came to 155%.

Turning to `O=C1Nc2cc(Cl)c(-c3ccc(C4(CO)CC4)cc3)cc2C1=C(O)c1ccccc1F` [Compound 46, 6-Chloro-3-[1-(2-fluoro-phenyl)-1-hydroxy-methylidene]-5-[4-(1-hydroxymethyl-cyclopropyl)-phenyl]-1,3-dihydro-indol-2-one], the EC50 is 6 nM. In addition, the Emax under setting [1] was found to be 95%.

As to `O=C1Nc2cc(Cl)c(-c3ccc(C4(CO)CC4)cc3)cc2C1=C([O-])c1ccccc1F.[Na+]` [Compound 47, 6-Chloro-3-[1-(2-fluoro-phenyl)-1-hydroxy-methylidene]-5-[4-(1-hydroxymethyl-cyclopropyl)-phenyl]-1,3-dihydro-indol-2-one, sodium salt], the EC50 came out at 25 nM. In addition, the “α2β1γ2 AMPK Emax” value under setting [1] is “(94) %”.

With `Cc1cc(C(O)=C2C(=O)Nc3cc(Cl)c(-c4ccc(C5=CCOCC5)cc4)cc32)sn1` [Compound 48, 6-Chloro-5-[4-(3,6-dihydro-2H-pyran-4-yl)-phenyl]-3-[1-hydroxy-1-(3-methyl-isothiazol-5-yl)-methylidene]-1,3-dihydro-indol-2-one], the 50% effective concentration (EC50) is 95 nM. Moreover, the maximal response (Emax) under setting [1] worked out at 87%.

Turning to `COc1cccc(C(O)=C2C(=O)Nc3cc(Cl)c(-c4ccc(N5CCOCC5)cc4)cc32)c1` [Compound 50, 6-Chloro-3-[1-hydroxy-1-(3-methoxy-phenyl)-methylidene]-5-(4-morpholin-4-yl-phenyl)-1,3-dihydro-indol-2-one], the EC50 is 40 nM.
